US9714245B2, “Carboline compounds usable in the treatment of neurodegenerative diseases” (ALZPROTECT, priority 2013, dated 2017)
pIC50: −log10 of the molar value.

Experiments:
secreted Aβ1-42 = assay: Aβ1-42 secretion by APP-transfected neuroblastoma cells (ELISA); assay type: cell-based; conditions: Homo sapiens, Neuroblastoma cell; SKNSH-SYSY APPWT cells; concentration decreasing secreted Aβ1-42 to 50% of basal amount
Description: (§1) Cell Cultures and Transfections to Test Activity on Aβ1-40 and Aβ1-42 Secretion
(§2) Human neuroblastoma cell line SKNSH-SYSY (ATCC® Catalog No. CRL-2266™), HEK (ATCC® CRL-1573™) and COS-1 (ATCC® CRL-1650™) cells were maintained in Dulbecco's modified Eagle medium (DMEM, GIBCO BRL) supplemented with 10% fetal calf serum, 2 mM L-glutamine, 1 mM non-essential amino acids, 50 units/ml penicillin/streptomycin (Invitrogen, France) in a 5% CO2 humidified incubator at 37° C. APP695 cDNA was subcloned into eukaryotic expression vector pcDNA3 (Invitrogen), allowing for a G418 (Invitrogen) selection of clones. This APP cDNA coding for the 695 amino acid long isoform was transfected into SKNSH-SYSY cells using the ethyleneimine polymer ExGen 500 (Euromedex) according to the manufacturer's instructions. The cells expressing APP (SKNSH-SYSY APP^WT) were selected by the addition of 200 μg/ml G418 in the cell medium. To quantify AR which released in the cell culture medium, the collected medium was spun at 200×g to eliminate the cell debris. The concentrations of secreted Aâ1-40 and Aβ1-42 were determined using the Human Aβ (1-40) Assay Kit (IBL) or the INNOTEST™ beta-Amyloid (1-42) ELISA Kit (Innogenetics), according to manufacturer's instructions. The results were expressed as IC50, i.e. the concentration able to decrease to 50% the basal amount of secreted Aβ peptide 1-40 and 1-42.

secreted Aβ1-40 = assay: Aβ1-40 secretion by APP-transfected neuroblastoma cells (ELISA); assay type: cell-based; conditions: Homo sapiens, Neuroblastoma cell; SKNSH-SYSY APPWT cells; concentration decreasing secreted Aβ1-40 to 50% of basal amount
Description: as §1, §2

AICD = assay: Quantification of AICD by Western blot in SY5Y-APPWT cells; assay type: cell-based, Human; conditions: compared to a control with a value of 100
Description: Quantifications of APP-CTFs and AICD
After treatment, SY5Y-APP^WT cells were scrapped and lysed in 1× Lysis Buffer (250 mM NaCl, 50 mM Tris, pH 8.8, 5 mM EDTA, 2.5% Triton X-100, 1% Deoxycholate, 0.1% SDS). For the Western blotting, an equal amount of total proteins (20 μg/lane) was loaded on a 16.5% Tris-Tricine or 8-16% Tris-Glycine polyacrylamide gel.
SDS-polyacrylamide gel electrophoresis (PAGE) was performed using the Criterion™ Tris-Tricine-precast or Bis-Tris-precast criterion gels (Bio-Rad Bioresearch division). Proteins were transferred to a […] nitrocellulose membrane (Hybond, Amersham Biosciences) at 2.5 mA/cm2 per gel using the Criterion™ Blotter system (Amersham Biosciences), according to the manufacturer's instructions. Proteins were reversibly stained with Ponceau Red in order to check the quality of the transfer of protein. The membranes were blocked in 25 mM Tris-HCl pH 8.0, 150 mM NaCl, 0.1% Tween-20 (v/v) and 5% (w/v) of skimmed milk for 30 min. Membranes were incubated overnight at 4° C. with appropriate dilution of the primary antibodies, and were incubated for 1 h at room temperature with secondary antibody. […] Quantifications were calculated with Image J software (NIH) and the data were collected using Excel Software (Microsoft). The loading variations between Western blot lanes were normalized according to the tubulin signal. Quantification of CTFα and AICD were compared to control conditions (considered as 100 in arbitrary units) and are presented for two concentrations of the drug: 1 and 10 μM.

## CC(C)CN(CCCN1CCN(CCCN2CCc3[nH]c4ccc(F)cc4c3C2)CC1)CC(C)C [Compound 3.1d, N,N-diisobutyl-3-(4-(3-(8-fluoro-1,3,4,5-tetrahydro-1H-pyrido[4,3-b]indol-2-yl)propyl)piperazin-1-yl)propylamine]
Secreted Aβ1-42
  pIC50: 5.68
Secreted Aβ1-40
  pIC50: 5.92
AICD
  AICD (10 μM): 84225 arbitrary units
